Data as given in PMC12566971, “Polyprenylated Acylphloroglucinols from Hypericum rochelii and Hypericum olympicum—Cytotoxic Effects on Non-Tumorigenic Cell Lines and Antibacterial Potential” (Pharmaceuticals, 2025).
Values after ≈ are worked out from the molar mass of the structure shown. Values joined by “and” are separate entries in the source; they are usually repeats but may differ in a detail not shown here. Equal entries are not always repeated. Where two headings read alike, the source gives them in different places.

Legend:
[1] = tested on: MRSA biofilm; details: assessed and published previously, ref [29], cited from earlier work
[2] = tested on: human total cytochrome P450 (CYP450); assay: ELISA for total cytochrome P450 in HEPG2 cells; type: in vitro ADME; details: HEPG2, 24 h, concentrations inhibiting S. aureus
Experimental: The effect on CYP450 was tested using the ELISA method on the HEPG2 liver cell line. As mentioned, it has weak or absent expression of the CYP450 superfamily, e.g., CYP3A4, CYP1A2, etc., and that low basal activity makes it a good model for studies of CYP inducers. In addition, these cells have the advantage of immortalization due to their cancerous nature. The standard curves after the two ELISA tests (Figure S7) were prepared as a standard dose–response curve, also called a four-parameter logistic (4-PL) curve.
Human total cytochrome P450 was examined using the Human Cytochrome P450 ELISA Kit (MBS705506, MyBioSource, San Diego, CA, USA) according to the manufacturer’s instructions. HEPG2 cells were seeded at a concentration of 100,000 cells/mL in a 6-well plate, and the overnight culture was treated with selected Hypericum agents. After 24 h of exposure, the protocol was performed according to the kit instructions.
The test principle uses the sandwich quantitative enzyme immunoassay technique. A microplate was pre-coated with an antibody specific for cytochrome P450. Standards and samples were pipetted into the wells, and if cytochrome P450 molecules were present, they were bound by the immobilized antibody. […] The color development was stopped, and its intensity was measured on a microplate reader ELx800 (BioTek Instruments, Inc., Winooski, VT, USA).

[3] = tested on: Human embryonic kidney-293 (HEK-293); assay: MTT assay for cytotoxicity; type: cell-based; details: for IC50: Homo sapiens, HEK293
Experimental: (§1) The MTT assay was performed according to Annex C, ISO 10993-5 [56] as in [116]. The panel of non-tumorigenic cell lines consisted of one murine (CCL-1 fibroblasts, which are recommended as a standard for cytotoxicity evaluation in Annex C of ISO 10993-5 [56]) and four human cell lines—HaCaT (immortalized epidermal keratinocytes), HGF (gingival fibroblasts), HEK-293 (embryonic cells from kidney epithelium), and HEPG2 (hepatoblastoma). Although technically a cancer cell line, HEPG2 is non-tumorigenic and retains many hepatocyte-related features in its proteome and a high degree of morphological and functional differentiation, also being a stage one hepatoblastoma.
(§2) CCL-1 was purchased from ATCC and HaCaT and HGF were bought from CLS Cell Lines Service (GmbH, Eppelheim, Germany). HEK-293 and HEPG2 were obtained from DSMZ. The cell culture medium for HaCaT and HEPG2 was Dulbecco’s Modified Eagle Medium (DMEM) with 4.5 g/L glucose (DMEM-HA). For HGF it was DMEM/F-12 (DMEM-12-A, a 1:1 mixture of DMEM and Ham’s F-12 medium). The cell medium for CCL-1 and HEK-293 was Eagle’s Minimum Essential Medium (MEM) (MEM-A). Ten percent heat-inactivated fetal bovine serum (FBS) was added to all media but to the one for the CCL-1 cells, to which 10% heat-inactivated horse serum was added. All media were supplemented with 2 mM L-glutamine and Penicillin/Streptomycin (Pen/Strep, 100×). The cell culture media, sera, and additives were from Capricorn Scientific (Düsseldorf, Germany).
(§3) GraphPad Prism software version 9 (GraphPad Software Inc., San Diego, CA, USA) was used to calculate the IC50 values from the MTT assays as in [116], as well as the MTC values, and the ELISA standard curves. The MTC values are, according to ISO 10993-5, the maximum concentration at which at least 70% of the cells are viable (nonlin fit, range).

[4] = tested on: Human gingival fibroblasts (HGF); assay: MTT assay for cytotoxicity; type: cell-based; details: for IC50: Homo sapiens, Fibroblast
Experimental: as §1, §2, §3

[5] = tested on: CCL-1 cell line; assay: Live-cell imaging with Hoechst for apoptosis detection; type: cell-based; details: low MIC doses
Experimental: Cell suspension was seeded in the same manner as for MTT, but 50 µL per well in 96-well clear bottom plates. […] For the hypertonic buffer, the exposure time was 2 h, and the cells were plated at twice the concentration as for the MTT and cytopathic tests in order to comply with the kit protocol.
At least two wells were seeded as replicates, and at least two photographs were taken for all samples and treatments, stained with dyes or not.

[6] = tested on: Staphylococcus aureus; details: ref [4],[29]; cited from earlier work
[7] = tested on: tumor cell lines; details: ref [29]; cited from earlier work
[8] = tested on: Streptococcus pyogenes; details: ref [4],[29]; cited from earlier work
[9] = tested on: Limosilactobacillus fermentum; assay: MIC evaluation on lactobacilli (broth microdilution); type: cell-based
Experimental: (§4) The MIC and MBC assessment on the pathogenic bacteria and the candidate probiotic lactic acid bacteria was carried out by the broth microdilution assay (BMD) and the agar plate assay, respectively, as described in [4]. The metabolic (dehydrogenase) activity of the lactic acid bacteria was assessed as described in [4]. Lactobacilli of different origins from the collection of Laboratory “Lactic Acid Bacteria and Probiotics”, the Stephan Angeloff Institute of Microbiology, Bulgarian Academy of Sciences (Sofia, Bulgaria), were selected (Table 13). The strains had been assessed previously, as candidate probiotics, according to the in vitro criteria recommended by the EFSA and the WHO guidelines. They were stored at −20 °C in MRS broth (Merck Group, Darmstadt, Germany) supplemented with 20% v/v sterile glycerol. Prior to the experiments, lactobacilli were subcultured twice in MRS broth (GM369, HiMedia, Mumbai, India) at 37 °C. An overnight exponential-phase culture (5% v/v inoculum) was used for the tests.

[10] = tested on: Lactiplantibacillus plantarum; assay: as above; type: cell-based
Experimental: as §4

[11] = tested on: HEPG2; assay: MTT assay for cytotoxicity; type: cell-based, human; details: for IC50: Homo sapiens, HepG2
Experimental: as §1, §2, §3

[12] = tested on: HaCaT; assay: MTT assay for cytotoxicity; type: cell-based, human; details: for IC50: Homo sapiens, HaCaT
Experimental: as §1, §2, §3

[13] = at least 70% of cells viable, ISO 10993-5

Question: Which results are given for `CC(C)=CCCC1(C)C(CC=C(C)C)CC2C(=O)C1(C(=O)C(C)C)C(=O)C(CC=C(C)C)=C2O` (stereo not drawn) [Olympiforin B]?
Answer: Median Biofilm Inhibitory Concentration (MBIC50), MRSA [1]: 0.05 (0.03 to 0.07) µg/mL; Minimum Biofilm Inhibitory Concentration (MBIC), MRSA [1]: 0.5 (1/2 × MIC) µg/mL and 1.07 µM; Minimum Biofilm Inhibitory Concentration (MBIC), MRSA ([1]; listed as olympiforin B): 0.5 µg/mL; IC50 ([1]; read-out: Median Biofilm Inhibitory Concentration (MBIC50), MRSA): 120 nM; Induction of total CYP450 [2]: hardly induce; IC50 ([3]; MTT assay): 0.67 µg/mL; IC50 ([3]; converted to µM): 1.43 µM; Maximum tolerated concentration (MTC), HEK-293 [3, 13]: 0.46 µg/mL; IC50 ([4]; MTT assay): 18 µg/mL; IC50 ([4]; converted to µM): 38.4 µM; Maximum tolerated concentration (MTC), HGF [4, 13]: 16.06 µg/mL; Nuclear and DNA condensation (signs of apoptosis) [5]: did not cause any nuclear and DNA condensation; MIC on bacteria, S. aureus [6]: 1 µg/mL (≈ 2.13 µM); IC50 [7]: 1300 nM; MIC on bacteria, S. pyogenes [8]: 4 µg/mL (≈ 8.53 µM); MIC ([9]; strain Lf53, read-out: MIC, Lf53): 2 µg/mL (≈ 4.27 µM); MIC ([9]; strain Lf98, read-out: MIC, Lf98): 2 µg/mL (≈ 4.27 µM); MIC ([10]; strain Lpl 11, read-out: MIC, Lpl 11): 2 µg/mL (≈ 4.27 µM); MIC ([10]; strain Lpl 25, read-out: MIC, Lpl 25): 2 µg/mL (≈ 4.27 µM); MIC ([10]; strain Lpl.AC11S, read-out: MIC, Lpl.AC11S): 2 µg/mL (≈ 4.27 µM); MIC ([10]; strain Lpl.L6, read-out: MIC, Lpl.L6): 4 µg/mL (≈ 8.53 µM); IC50 ([11]; MTT assay): 4.5 µg/mL; IC50 ([11]; converted to µM): 9.6 µM; Maximum tolerated concentration (MTC), HEPG2 [11, 13]: 1.54 µg/mL; IC50 ([12]; MTT assay): 1.71 µg/mL; IC50 ([12]; converted to µM): 3.65 µM; Maximum tolerated concentration (MTC), HaCaT ([12]; concentration at which at least 70% of cells are viable, ISO 10993-5): 0.52 µg/mL
